Tests used:
Assay in all cases: in vitro antifungal test, Z. tritici spore suspension in PDB
Assay type in all cases: cell-based
[1] = test system: K5544 Zymoseptoria tritici (WT); conditions: isolate K5544 (WT); growth at 3 days post exposure; average of two replicates
Experimental: (§1) A panel of 16 Zymoseptoria tritici isolates was subjected to in vitro antifungal tests. Spore suspensions of Z. tritici isolates were prepared in potato dextrose broth (PDB) and exposed to defined concentration ranges of the inhibitors (20ppm starting concentration, dilution steps of 3). A sensitive wild-type isolate was used together with a panel of strains containing variants of the Z. tritici CYP51 gene conferring resistance to DMI fungicides. The DMI-resistant isolates were isolated from wheat in the UK, Ireland, Germany and Russia in 2020. Determination of CYP51 gene variants was achieved using targeted gene sequencing. The half maximal effective concentration (EC50) of the inhibitors were calculated based on growth responses of Z. tritici at 3 days post exposure to the different concentrations of the […] using a linear regression. The Tables A and B show an average of EC50 values in ppm from two replicates, as well as M=(EC50 (enantiomer)/EC50 (racemate))−0.5.

[2] = test system: K9020 Zymoseptoria tritici CYP51 L50S V136A I381V Y461S S524T; conditions: isolate K9020; growth at 3 days post exposure; average of two replicates
Experimental: as §1

[3] = test system: K9021 Zymoseptoria tritici CYP51 L50S V136A I381V Y461S S524T; conditions: isolate K9021; growth at 3 days post exposure; average of two replicates
Experimental: as §1

[4] = test system: K9022 Zymoseptoria tritici CYP51 L50S V136A I381V Y461S S524T; conditions: isolate K9022; growth at 3 days post exposure; average of two replicates
Experimental: as §1

[5] = test system: K9023 Zymoseptoria tritici CYP51 L50S V136C S188N A379G I381V YG459 S524T; conditions: growth at 3 days post exposure, average of two replicates
Experimental: as §1

[6] = test system: K9026 Zymoseptoria tritici CYP51 L50S S188N A379G I381V YG459 N513K; conditions: growth at 3 days post exposure, average of two replicates
Experimental: as §1

[7] = test system: K9029 Zymoseptoria tritici CYP51 L50S I381V YG459 N513K; conditions: growth at 3 days post exposure, average of two replicates
Experimental: as §1

[8] = test system: K9032 Zymoseptoria tritici CYP51 L50S D134G V136A I381V Y461H S524T; conditions: growth at 3 days post exposure, average of two replicates
Experimental: as §1

## COC(=O)C(O)(Cn1cncn1)c1ccc(Oc2ccc(Cl)cc2)cc1C(F)(F)F (racemic) [Racemate Compound I-2]
[1]
  EC50 (ppm): 0.03 ppm
[2]
  EC50 (ppm): 0.03 ppm
[3]
  EC50 (ppm): 0.09 ppm
[4]
  EC50 (ppm): 0.7 ppm
[5]; isolate K9023, 2nd listed row
  EC50 (ppm): 0.1 ppm
[5]; isolate K9023, 3rd listed row
  EC50 (ppm): 0.3 ppm
[5]; isolate K9023
  EC50 (ppm): 0.3 ppm
[6]; isolate K9026, 1st listed row
  EC50 (ppm): 6 ppm
[6]; isolate K9026, 2nd listed row
  EC50 (ppm): 0.07 ppm
[6]; isolate K9026, 3rd listed row
  EC50 (ppm): 0.07 ppm
[7]; isolate K9029, 1st listed row
  EC50 (ppm): 0.8 ppm
[7]; isolate K9029, 2nd listed row
  EC50 (ppm): 3 ppm
[7]; isolate K9029, 3rd listed row
  EC50 (ppm): 10 ppm
[8]; isolate K9032, 1st listed row
  EC50 (ppm): 0.2 ppm
[8]; isolate K9032, 2nd listed row
  EC50 (ppm): 0.1 ppm
[8]; isolate K9032, 3rd listed row
  EC50 (ppm): 0.1 ppm
